{
  "source": "patent US7928119B2",
  "about": "“Use of EP4 receptor ligands in the treatment of IL-6 involved diseases” (Pfizer Inc., priority 2002, dated 2011)",
  "key": {"human whole blood (HWB) [1]": {"tested_on": "human whole blood (HWB)", "experiment": "PGE2-induced IL-6 production assay using human whole blood (HWB)", "type": "cell-based", "settings": "100 μM, 24 hrs incubation", "quoted_text": "Peripheral human whole blood (HWB) was collected from healthy volunteers into the sample tubes (nine volumes into one volume of 3.8% trisodium citrate, Becton Dickinson), and chilled at 4° C. until the experiment. HWB (50 μl) was put into the assay plate and mixed for 10 sec with plate mixer (intensity level at 4, TAITAC, Micromixer). The samples were placed for 3 min at room temperature, then 45 μl of AIM medium was added and mixed for 10 sec with plate mixer (intensity level at 4). The samples were placed for 3 min at room temperature. The mixture (100 μl) of 10-10000 nM PGE2 and 100 μM argatroban were added to the samples, and mixed for 10 seconds with plate mixer (intensity level at 4). The samples were incubated in 5% CO2 at 37° C. for 24 hrs. Then, the samples were stirred and centrifuged at 200 g for 10 minutes. The supernatants were collected, and the IL-6 concentration was measured by ELISA-Kit (Cyto screen).\nIn this experiment, we have established PGE2-induced IL-6 production assay using human whole blood (HWB). To prevent fibrin synthesis, argatroban, a thrombin inhibitor, was added to the culture samples. […] Diluted human whole blood samples were stimulated with 10-10,000 nM of PGE2 and incubated at 37° C. for 24 hrs. The IL-6 concentration in the supernatant was determined by ELISA. […]"}, "fibrin formation": {"tested_on": "fibrin formation", "experiment": "Fibrin formation in HWB culture samples during 24 hrs incubation", "set-up": "species or system human", "settings": "100 μM", "quoted_text": "In this experiment, we have established PGE2-induced IL-6 production assay using human whole blood (HWB). To prevent fibrin synthesis, argatroban, a thrombin inhibitor, was added to the culture samples. […] Diluted human whole blood samples were stimulated with 10-10,000 nM of PGE2 and incubated at 37° C. for 24 hrs. The IL-6 concentration in the supernatant was determined by ELISA. The results represented the mean±s.d. from one representative experiment performed in triplicate."}, "PGE2-stimulated HWB": {"tested_on": "PGE2-stimulated HWB", "experiment": "Effects of EP4 antagonist on the production of IL-6 in PGE2-stimulated HWB", "type": "cell-based, human", "settings": "Compound B 320-40,000 nM, 24 hrs", "protocol": "Peripheral human whole blood (HWB) was collected from healthy volunteers into the sampling tubes (nine volumes into one volume of 3.8% trisodium citrate, Becton Dickinson), and chilled at 4° C. until the experiment.\nCompound B (5 μl) or vehicle (AIM medium containing 0.2% DMSO) was added into 96-well culture plates. HWB (50 μl) was put into the assay plate and mixed for 10 sec with plate mixer (intensity level at 4, TAITAC, Micromixer). The samples were placed for 3 min at room temperature, and then 45 μl of AIM medium was added and mixed for 10 sec with plate mixer (intensity level at 4). The samples were placed for 3 min at room temperature. The mixture (100 μl) of 100 nM PGE2 and 100 μM argatroban was added to the samples, and mixed for 10 sec with plate mixer (intensity level at 4). The samples were incubated in 5% CO2 at 37° C. for 24 hrs. Then, the samples were stirred and centrifuged at 200 g for 10 minutes. The supernatants were collected, and the IL-6 concentration was measured by ELISA-Kit (Cyto screen).\nCompound B inhibited the PGE2-stimulated IL-6 production in a dose dependent manner (FIG. 6). Diluted human whole blood samples containing Compound B were stimulated with 10-10,000 nM of PGE2 and incubated at 37° C. for 24 hrs. The IL-6 concentration in the supernatant was determined by ELISA. […]"}, "human PBMC": {"tested_on": "human PBMC", "experiment": "PGE2 stimulation of IL-6 secretion in ConA-treated human PBMC and its inhibition by EP4 antagonists (ELISA)", "type": "cell-based", "protocol": "PBMC were stimulated with 5 μg/ml of Con A alone or with 10 nM to 1000 nM PGE2 at 37° C. for 24 hr. The secreted IL-6 in culture medium was measured by ELISA. Data are expressed as mean±s.d. (FIG. 1)\nThe PGE2 concentration-dependence of stimulation of IL-6 secretion by human PBMC without and with ConA-stimulation, and the inhibitory effect of Compound A. PBMC were stimulated with 5 μg/ml of Concanavalin A alone or with 10 nM to 1000 nM PGE2 at 37° C. in 5% CO2 for 24 hr. To see the effect of Compound A, 50 μM of Compound A was added simultaneously with ConA and PGE2, and incubated for 24 hr. Data in parenthesis are expressed % control of mitocondorial dehydrogenase activity. (FIG. 2)\nCompound A and Compound B inhibited the IL-6 secretion in ConA-treated PBMC. (FIG. 3.) PBMC were incubated with 5 μg/ml of Con A, 100 nM PGE2 and various doses of EP4 antagonists at 37° C. for 24 hr. The secreted IL-6 in culture medium was measured by ELISA. Data are expressed as mean±s.d."}, "[2]": {"tested_on": "human leukemic T cells of the HSB.2 cultured line", "settings": "HSB.2 cells coexpressing EP2, EP3 and EP4; cited from earlier work"}, "human whole blood cells": {"tested_on": "human whole blood cells", "experiment": "IL-6 production in human whole blood cells", "type": "cell-based", "settings": "application of only PGE2 to human whole blood cells", "source_text": "One embodiment of this invention is a more specific therapeutic targeting system to control IL-6 production. In addition, this system is a useful method for the detection of molecular target of atherosclerosis and IL-6 related disorders."}, "[3]": {"tested_on": "ConA and PGE2 co-stimulated human whole blood", "experiment": "IL-6 production in ConA and PGE2 co-stimulated human whole blood", "type": "cell-based", "protocol": "Compound B (50 μl), ConA and PGE2 (50 μl, 1:1) were diluted with the AIM medium (Gibco) in the appropriate concentrations (conc.) and were placed onto 96-well culture plates (assay plates). Peripheral blood was collected from healthy volunteers (nine volumes into one volume of 3.8% trisodium citrate, Becton Dickinson). Human whole-blood samples were diluted with the same volume of AIM medium, and 100 μl of diluted-blood samples were place onto the assay plates. The final DMSO conc. of assay mixtures was 0.25%. The assay mixtures were incubated in 5% CO2 at 37° C. for 24 hrs. Then, the assay mixtures were stirred and centrifuged at 200 g for 10 minutes. The supernatants were collected, and the IL-6 concentration was measured by ELISA-Kit (Cyto screen).\nPGE2 enhanced IL-6 production dose dependently from 10 to 1000 nM (FIG. 7). When blood samples were stimulated with 10, 100 and 1000 nM of PGE2, the IL-6 concentrations in the assay mixtures were 1.8˜10.8 ng/ml, 4˜20 ng/ml and 5.8˜23 ng/ml, respectively. The concentrations of PGE2 (10-1000 nM) gave sufficient IL-6 production to determine the IC50s of the EP4 antagonists. […] Diluted human whole-blood samples were stimulated with 5 μg/ml of ConA and three different concentrations of PGE2 (10-1000 nM). The IL-6 concentration in the supernatant was determined after 24 hrs of incubation at 37° C. Diluted human whole blood was co-stimulated with 5 μg/ml of ConA and 100 nM of PGE2 and incubated at 37° C. for 24 hrs. The IL-6 concentration in the supernatant was determined by ELISA."}, "human whole blood (HWB) [4]": {"tested_on": "human whole blood (HWB)", "experiment": "Effects of EP agonists on the production of IL-6 in HWB", "type": "cell-based", "settings": "agonist 1-10 μM (up to 10 μM), 24 hrs", "protocol": "Peripheral human whole blood (HWB) was collected from healthy volunteers into the sample tubes (nine volumes into one volume of 3.8% trisodium citrate, Becton Dickinson), and chilled at 4° C. until the experiment. HWB (50 μl) was put into the assay plate and mixed for 10 sec with plate mixer (intensity level at 4, TAITAC, Micromixer). The samples were placed for 3 min at room temperature, then 45 μl of AIM medium was added and mixed for 10 sec with plate mixer (intensity level at 4). The samples were placed for 3 min at room temperature. The mixture (100 μl) of 10-10000 nM each EP agonist and 100 μM argatroban were added to the samples, and mixed for 10 sec with plate mixer (intensity level at 4). The samples were incubated in 5% CO2 at 37° C. for 24 hrs. Then, the samples were stirred and centrifuged at 200 g for 10 minutes. The supernatants were collected, and the IL-6 concentration was measured by ELISA-Kit (Cyto screen).\nThe application of 1-10 μM Butaprost, an EP2 agonist, enhanced IL-6 production (FIG. 5). […] Effects of EP2 (butaprost), EP4 (11-deoxy-PGE1) and EP1/EP3 (sulprostone) agonists on the production of IL-6 in HWB was measured respectively. Each agonist was added to the HWB, and incubated in 5% CO2 at 37° C. for 24 hrs. The results represented the mean±s.d. of the results in triplicate. […]"}},
  "note": "Several values for one entry are separate records, joined by “and”; a condition that tells them apart may be missing. Equal values may be shown once.",
  "data": [
    {"compound": "CC1CNc2c(cccc2S(=O)(=O)N[C@@H](CCCNC(=N)N)C(=O)N2CC[C@@H](C)C[C@@H]2C(=O)O)C1", "note": "(some centres unmarked) [argatroban]", "values": [
      {"measurement": "amount of IL-6 production", "setting": "human whole blood (HWB) [1]", "value": "did not affect"},
      {"measurement": "fibrin formation in the blood samples", "setting": "fibrin formation", "value": "inhibited"}
    ]},
    {"compound": "O=C(O)c1cccc(C[C@@H]2CCCC=C2c2nc(-c3ccccc3)c(-c3ccccc3)o2)c1", "note": "[Compound B, 3-{[(1S)-2-(4,5-diphenyl-1,3-oxazol-2-yl)-2-cyclohexen-1-yl]methyl}benzoic acid]", "values": [
      {"measurement": "PGE2-stimulated IL-6 production", "setting": "PGE2-stimulated HWB", "value": "inhibited"},
      {"measurement": "IC50", "setting": "human PBMC; Homo sapiens, PBMC stimulated with 5 μg/ml ConA and 100 nM PGE2 for 24 hr, read-out: IC50 of inhibition of IL-6 production", "value": 0.032, "unit": "µM"}
    ]},
    {"compound": "CCCCC[C@H](O)/C=C/[C@H]1[C@H](O)CC(=O)[C@@H]1C/C=C\\CCCC(=O)O", "note": "[PGE2, Prostaglandin E2]", "values": [
      {"measurement": "IL-6 production", "setting": "[2]", "value": "enhanced"},
      {"measurement": "IL-6 production", "setting": "human whole blood cells", "value": "enhanced IL-6 production to a great extent"},
      {"measurement": "IL-6 production", "setting": "[3]; ConA-stimulated HWB, PGE2 10 to 1000 nM", "value": "enhanced"},
      {"measurement": "secretion of IL-6", "setting": "human PBMC; ConA unstimulated PBMC, 10-1000 nM PGE2", "value": "did not affect"},
      {"measurement": "IL-6 secretion further enhanced, compared with ConA stimulation without PGE2", "setting": "human PBMC; PBMC, 5 μg/ml ConA, 24 hr, […] PGE2 (so in the source)", "value": "3.5 fold and 5.7 fold and 10.1 fold"}
    ]},
    {"compound": "CCc1nc2cc(C(C)=O)ccc2n1-c1ccc(CCNC(=O)NS(=O)(=O)c2ccc(C)cc2)cc1", "note": "[Compound C, N-[({2-[4-(5-acetyl-2-ethyl-1H-benzimidazol-1-yl)phenyl]ethyl}amino)carbonyl]-4-methylbenzenesulfonamide]", "values": [
      {"measurement": "mode of inhibition of IL-6 production", "setting": "[3]; ConA and PGE2 co-stimulated HWB", "value": "competitively with PGE2"},
      {"measurement": "inhibition of IL-6 production", "setting": "[3]; ConA and PGE2 co-stimulated HWB, Compound C 16-50,000 nM", "value": "dose-dependent inhibition"}
    ]},
    {"compound": "CCCC1([C@H](O)C/C=C/[C@H]2[C@H](O)CC(=O)[C@@H]2CCCCCCC(=O)OC)CCC1", "note": "[Butaprost]", "values": [
      {"measurement": "IL-6 production", "setting": "human whole blood (HWB) [4]", "value": "enhanced"}
    ]},
    {"compound": "CCCC(=O)Nc1ncnc2c1ncn2[C@@H]1O[C@@H]2COP(=O)(O)O[C@H]2[C@H]1OC(=O)CCC", "note": "[dibutyryl-cAMP]", "values": [
      {"measurement": "IL-6 production", "setting": "[2]", "value": "mimicked"}
    ]},
    {"compound": "CCCCC[C@H](O)/C=C/[C@H]1CCC(=O)[C@@H]1CCCCCCC(=O)O", "note": "[11-deoxy-PGE1]", "values": [
      {"measurement": "IL-6 production", "setting": "human whole blood (HWB) [4]", "value": "enhanced"}
    ]}
  ]
}
